Results from patent US20120269725A1, “TARGETED RADIOLABELED COMPOUNDS AND THEIR USE FOR THE TREATMENT AND DIAGNOSIS OF CANCER” (priority 2009, published 2012).

Experiments:
[1] = tested on: subcutaneous LS174T tumors (human colorectal adenocarcinoma); assay: Biodistribution, clearance and planar imaging in athymic mice bearing subcutaneous LS174T xenografts; assay type: in vivo, athymic NCr-nu/nu mice; settings: for tumor uptake and retention, times higher than parent drug ^131IUdR: co-injected ^131IUdR
Procedure: The in vivo properties and pharmacology of several compounds of the present invention were initially tested in athymic mice bearing subcutaneous LS174T tumors (human colorectal adenocarcinoma), which have several desirable properties such as rapid growth when implanted subcutaneously (SQ), good vascularization and the availability of considerable historical data for the parent compound IUdR. The clearance rates from blood, tumor, and associated organs were analyzed to determine the structure-pharmacokinetics relationship. The first compounds studied were 6b-fast and 6b-slow. Four-to-six-weeks old female athymic NCr-nu/nu mice (NCI-Frederic, Md., USA) were allowed to acclimate in Applicants' facility after delivery for no less than 5 days. All protocols involving animals were approved by the University of Nebraska Institutional Animal Care and Use Committee. Mice were housed in microisolator cages with free access to sterilized standard rodent diet and water. LS174T cells in 0.1 mL of serum-free medium were implanted SQ at 5×10^6 cells/mouse. One week later identification transponders were implanted, also SQ. Body weights and tumor sizes were monitored twice weekly, and approximately 10 days after the cell implant, mice were randomized for biodistribution studies.
Each of the two isomers, 6b-fast and 6b-slow, was tested independently in separate groups of mice. The comparison to the parent compound, IUdR, was made by co-injecting ^131IUdR with a particular ^125I-labeled diastereomer. Compounds were administered intravenously (IV) via a tail vein.
Biodistribution was conducted at 1 h, 4 h, 24 and 48 h after the administration of radiolabeled compounds (n=6 per time point). The injection doses contained approximately 1 μCi (37 kBq) ^131IUdR and 5 μCi (185 kBq) ^125I-labeled 6b-fast or 6b-slow dissolved in 0.2 mL phosphate buffered saline containing 0.1% bovine serum albumin, pH 7.2 (PBS). All syringes were weighted after loading with the compound solution and immediately after the injection to determine the weight of the injected dose. Triplicate standards of the injected dose were prepared in PBS and counted in a gamma counter just before the beginning of the experiment. The radioactive content of these standards was also determined alongside all tissues after the necropsy to correct the tissue uptake for the decay of the radioisotope. Blood, liver, spleen, heart, lungs, kidneys, brain, tumor and tail were collected during necropsy. Tissues were rinsed in ice-cold saline, patted dry and weighed. The tail was collected to validate the quality of the IV injections.
FIG. 7 presents whole body images for a typical time course distribution (24 h, 48 h, and 72 h) of 6b administered as a diastereomeric mixture in LS174T-bearing athymic mice. The images were acquired 1, 2, and 3 days after the administration of the compound. […] It is also apparent that based on pharmacokinetics, the use of these compounds can be tailored to a specific malignancy and its anatomical location.

[2] = tested on: IP OVCAR-3 tumors; assay: Pilot therapy of IP OVCAR-3 tumors in athymic mice; assay type: in vivo
Description: In pilot therapy experiments, the effects of unmodified ^125IUdR on the growth of IP OVCAR-3 tumors were compared to the therapeutic effects of the 6b diastereomeric mixture and 7b diastereomeric mixture. The tumor model used in this study, OVCAR-3 cell line, was established from the malignant ascites of a patient with progressive adenocarcinoma of the ovary after many types of chemotherapy including cyclophosphamide, adriamycin, and cisplatin. OVCAR-3 is resistant in vitro to clinically relevant concentrations of adriamycin, melphalan, and cisplatin (Hamilton T C, Young R C, Louie K G, Behrens B C, McKoy W M, Grotzinger K R, Ozols R F. Characterization of a xenograft model of human ovarian carcinoma which produces ascites and intraabdominal carcinomatosis in mice. Cancer Res. 1984; 44:5286-90.). In immunodeficient mice, IP injected OVCAR-3 cells produce malignant ascites, peritoneal carcinomatosis, and serosal and visceral seeding that, if left untreated, leads to death from respiratory compromise, hemorrhage from invasion of intra-abdominal blood vessels, and bowel obstruction. Substantial literature data (nearly 100 publications) confirm that this tumor model has pathogenesis and metastatic properties similar to those of human ovarian cancer.
Mice received IP implants of approximately 2.4×10^8 OVCAR-3 cells/mouse isolated from fresh OVCAR-3 mouse ascites. Cell viability was measured before and after injection, and was ≧90%. Four days after tumor cells were implanted, the mice received SQ transponders and were randomized via a lottery into four groups: NT—untreated controls that received IP injection of PBS; 7b group—receiving IP doses of the 7b diastereomeric mixture in PBS (average 0.4 mCi/mouse (14.8 MBq)); 6b group—receiving IP doses of the 6b diastereomeric mixture in PBS (average dose 0.36 mCi/mouse (13.3 MBq)); and ^125IUdR group—receiving IP doses of ^125IUdR (average 0.43 mCi/mouse (15.9 MBq)) in PBS. Mice were monitored three times per week.
Mice in the 6b group received 0.22 mCi (8.1 MBq) 6b diastereomeric mixture on day 27; and on day 28 mice in ^125IUdR group were treated with additional 0.2 mCi (7.4 MBq) ^125IUdR. Slight differences in the dosing schedule and the administered doses are because of the required large quantities of the compounds. For these experiments, ˜20 mCi of no-carrier added and radiochemically pure compounds were required. Each agent was purified on the analytical reversed phase HPLC column. The use of preparative columns in this case is impractical because the products are recovered in large volumes of acetonitrile-containing solvent that must be evaporated to dryness before the use in mice.
Overall, mice in the 7b group were treated with an average of 0.58 mCi (21.5 MBq) 7b diastereomeric mixture; mice in the 6b group were treated with an average of 0.58 mCi (21.5 MBq) 6b diastereomeric mixture, and mice in the ^125IUdR group were treated with an average of 0.63 mCi (23.3 MBq) ^125IUdR.
The therapy was terminated 7 weeks after the first dosing. Mice were sacrificed for the biodistribution study. Blood and solid tumor were taken for the evaluation of their radioactive content. The peritoneal cavity was lavaged with 2-mL aliquots of PBS, and PBS wash and ascites were collected. One mL of the ascites suspension with cancer cells was taken for gamma counting. The rest of the abdominal fluid was centrifuged and 0.5 mL of the supernatant was reserved for gamma counting. The weight of the cell pellet and the supernatant were determined.
Two weeks after the first dose of radiolabeled compounds, the whole body radioactivity was measured to determine to what extent the additional doses of the compounds may increase the radiation burden and therefore may be detrimental to the animal health (FIG. 11B). The absolute amounts were low and ranged from […] for the 6b group to […] in the 7b group. […]

[3] = tested on: U-87 human glioblastoma cells; assay: Clonogenic assay in U-87 cells; assay type: cell-based; settings: 24 h treatment at 0.5 to 5 μCi/mL; 100 and 500 cells/flask; monitored 7 weeks
Procedure: U-87 cells were plated for 24 h before treatment and then treated for 24 h with concentrations of 6b fast and 6b slow ranging from 0.5 μCi/mL to 5 μCi/mL (18.5 to 185 kBq/mL). Cells were harvested, washed, and their numbers counted using a Cellometer® cell counter. Cells were diluted in fresh medium. Cells from each concentration of 6b fast and 6b slow were plated in three T25 flasks at two densities, 100 cells/flask and 500 cells/flask. Control cells were sham-treated with PBS and processed in a manner identical to cells treated with 6b. Cells were periodically examined and fresh medium was added every 5-7 days. Three weeks after plating, media was removed from the control flasks, cells were washed with 5 mL ice-cold PBS, followed by 5 mL PBS/methanol (1:1; v/v), and fixed in 5 mL methanol for 10 minutes. The methanol was discarded and flasks were left open to dry for a few hours. Crystal violet (5 mL; 0.25% in 1:1 PBS/methanol) was added to each flask to stain the cells. After approximately 10 min, the dye was removed and flasks were rinsed first with tap water followed by distilled water and were left to dry. […] This finding indicates the extraordinarily effective killing of U-87 cells by 6b.

Compound: O=c1[nH]c(=O)n([C@H]2C[C@H](O)[C@@H](COP3(=O)OCc4ccccc4O3)O2)cc1[125I] (some centres unmarked) [Compound 6b, 5-[^125I]-Iodo-5′-O-cycloSaligenyl-2′-deoxyuridine Monophosphate]
- tumor uptake and retention, times higher than parent drug ^131IUdR ([1]; 24 hours after IV administration): ~14 ×
- tumor uptake and retention, times higher than parent drug ^131IUdR ([1]; 48 hours after IV administration): ~7 ×
- clearance of normal organs versus tumor (whole body images) ([1]; diastereomeric mixture, images 24 h, 48 h, 72 h after IV administration): normal organs such as liver clear the compound at a much faster rate than the tumor
- whole body retention, median ([2]; after 14 days): 1.89 % ID
- whole body retention ([2]; after 14 days, value with spread in brackets): 1.87 (0.16) % ID
- reduction in solid tumor deposits as compared to ^125IUdR ([2]; diastereomeric mixtures IP, total average 0.58 mCi, 7 weeks after first dose): ~50%
- tumor retention compared to ^125IUdR ([2]; necropsy 4 weeks after the boost dose): significantly higher compared to ^125IUdR
- colony formation [3]: colonies were not formed
